Reference: the NIST ThermoML archive (doi:10.1016/j.fluid.2019.03.004)
Numbers after ± are expanded uncertainties.

Details: Liquid, Transpiration method

## C=CCc1ccc(OC)cc1 [1-allyl-4-methoxybenzene]
279.1 K
  vapor or sublimation pressure: 0.00378 ± 0.00025 kPa
284.1 K
  vapor or sublimation pressure: 0.00583 ± 0.00041 kPa
288.9 K
  vapor or sublimation pressure: 0.00912 ± 0.00062 kPa
293.8 K
  vapor or sublimation pressure: 0.01395 ± 0.00092 kPa
298.8 K
  vapor or sublimation pressure: 0.02153 ± 0.0014 kPa
303.7 K
  vapor or sublimation pressure: 0.03168 ± 0.002 kPa
308.8 K
  vapor or sublimation pressure: 0.04509 ± 0.0029 kPa
313.7 K
  vapor or sublimation pressure: 0.06571 ± 0.0042 kPa
318.2 K
  vapor or sublimation pressure: 0.09199 ± 0.0058 kPa
323.2 K
  vapor or sublimation pressure: 0.1278 ± 0.008 kPa

## C=CCc1ccc(O)c(OC)c1 [2-hydroxy-5-allylanisole]
281.1 K
  vapor or sublimation pressure: 0.0003 ± 2e-05 kPa
283.7 K
  vapor or sublimation pressure: 0.00039 ± 3e-05 kPa
289 K
  vapor or sublimation pressure: 0.00066 ± 5e-05 kPa
293.9 K
  vapor or sublimation pressure: 0.00111 ± 8e-05 kPa
298.9 K
  vapor or sublimation pressure: 0.00179 ± 0.00012 kPa
303.7 K
  vapor or sublimation pressure: 0.00287 ± 0.0002 kPa
308.7 K
  vapor or sublimation pressure: 0.00447 ± 0.0003 kPa
313.7 K
  vapor or sublimation pressure: 0.00709 ± 0.00049 kPa
318.9 K
  vapor or sublimation pressure: 0.01038 ± 0.00069 kPa
323.6 K
  vapor or sublimation pressure: 0.01507 ± 0.00099 kPa
328.6 K
  vapor or sublimation pressure: 0.02241 ± 0.0015 kPa
333.6 K
  vapor or sublimation pressure: 0.03329 ± 0.0022 kPa
338.5 K
  vapor or sublimation pressure: 0.04891 ± 0.0031 kPa
343.5 K
  vapor or sublimation pressure: 0.06869 ± 0.0043 kPa

## C/C=C/c1ccc(O)c(OC)c1 [2-methoxy-4-(1E)-1-propen-1-yl-phenol]
313.2 K
  vapor or sublimation pressure: 0.00241 ± 0.00017 kPa
315.2 K
  vapor or sublimation pressure: 0.00289 ± 0.0002 kPa
316.2 K
  vapor or sublimation pressure: 0.00313 ± 0.0002 kPa
318.2 K
  vapor or sublimation pressure: 0.00371 ± 0.00025 kPa
320.3 K
  vapor or sublimation pressure: 0.00449 ± 0.0003 kPa
323.2 K
  vapor or sublimation pressure: 0.00561 ± 0.0004 kPa
325.2 K
  vapor or sublimation pressure: 0.00657 ± 0.00046 kPa
328.1 K
  vapor or sublimation pressure: 0.00838 ± 0.00056 kPa
330.2 K
  vapor or sublimation pressure: 0.00975 ± 0.00066 kPa
333.2 K
  vapor or sublimation pressure: 0.01216 ± 0.00081 kPa
336.3 K
  vapor or sublimation pressure: 0.01528 ± 0.001 kPa
338.2 K
  vapor or sublimation pressure: 0.01783 ± 0.0012 kPa
340.2 K
  vapor or sublimation pressure: 0.02046 ± 0.0013 kPa
343.2 K
  vapor or sublimation pressure: 0.02507 ± 0.0016 kPa
345.1 K
  vapor or sublimation pressure: 0.02835 ± 0.0018 kPa
348.2 K
  vapor or sublimation pressure: 0.03558 ± 0.0023 kPa
350.1 K
  vapor or sublimation pressure: 0.04019 ± 0.0026 kPa
353.1 K
  vapor or sublimation pressure: 0.05109 ± 0.0033 kPa
356.1 K
  vapor or sublimation pressure: 0.06297 ± 0.004 kPa
358.1 K
  vapor or sublimation pressure: 0.07097 ± 0.0045 kPa

## C/C=C/c1ccc(OC)cc1 [(E)-1-(4-methoxyphenyl)propene]
296.5 K
  vapor or sublimation pressure: 0.00567 ± 0.00041 kPa
300.4 K
  vapor or sublimation pressure: 0.00774 ± 0.00054 kPa
304.4 K
  vapor or sublimation pressure: 0.0112 ± 0.00076 kPa
308.4 K
  vapor or sublimation pressure: 0.01507 ± 0.00099 kPa
312.3 K
  vapor or sublimation pressure: 0.02056 ± 0.0013 kPa
313.2 K
  vapor or sublimation pressure: 0.02178 ± 0.0014 kPa
316.4 K
  vapor or sublimation pressure: 0.02753 ± 0.0018 kPa
318.5 K
  vapor or sublimation pressure: 0.03262 ± 0.0021 kPa
321.4 K
  vapor or sublimation pressure: 0.04178 ± 0.0027 kPa
323.4 K
  vapor or sublimation pressure: 0.04533 ± 0.0029 kPa
326.4 K
  vapor or sublimation pressure: 0.05539 ± 0.0035 kPa
328.4 K
  vapor or sublimation pressure: 0.06574 ± 0.0042 kPa
331.5 K
  vapor or sublimation pressure: 0.08089 ± 0.0051 kPa
333.4 K
  vapor or sublimation pressure: 0.09361 ± 0.0059 kPa
